In PMC10299909, “Structural basis of efficacy-driven ligand selectivity at GPCRs” (Nature Chemical Biology, 2023):
Substitutions are numbered along the chain they refer to.

How the values were obtained:
M3 mAChR [1] = target: T1, M3 mAChR (Homo sapiens, UniProt P20309); experiment: whole-cell [3H]NMS radioligand competition binding, CHO FlpIn cells; conditions: first set of experiments, read-out: pKI (radioligand binding competition with [3H]NMS) (converted)
T1 construct: expressed in transfected cells; host or cells: CHO FlpIn

M4 mAChR [2] = target: T2, M4 mAChR (Homo sapiens, UniProt P08173); experiment: as above; conditions: read-out: Affinities M2 M4: binding normalised to Buffer only-TB = 100
T2 construct: expressed in transfected cells; host or cells: CHO FlpIn
T2 sequence (P08173 1-479): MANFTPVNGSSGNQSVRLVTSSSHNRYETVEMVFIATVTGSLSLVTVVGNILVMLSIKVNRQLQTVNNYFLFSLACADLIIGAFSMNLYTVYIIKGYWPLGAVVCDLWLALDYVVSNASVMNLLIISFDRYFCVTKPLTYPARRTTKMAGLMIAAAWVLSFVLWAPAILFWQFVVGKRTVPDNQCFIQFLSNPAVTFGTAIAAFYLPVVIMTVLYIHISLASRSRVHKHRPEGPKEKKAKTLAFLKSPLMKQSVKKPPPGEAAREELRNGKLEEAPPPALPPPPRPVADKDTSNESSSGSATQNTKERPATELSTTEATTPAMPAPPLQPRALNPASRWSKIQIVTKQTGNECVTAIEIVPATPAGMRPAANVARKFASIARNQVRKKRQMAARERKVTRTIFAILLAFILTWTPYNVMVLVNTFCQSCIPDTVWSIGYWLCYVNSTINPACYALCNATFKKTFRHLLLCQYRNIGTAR

M3 mAChR [3] = target: T1, M3 mAChR; experiment: pERK1/pERK2 signaling assay (AlphaScreen SureFire), CHO FlpIn cells; assay type: cell-based
M4 mAChR [4] = target: T2, M4 mAChR; experiment: as above; assay type: cell-based
M5 mAChR = target: T3, M5 mAChR (Homo sapiens, UniProt P08912); experiment: as above; assay type: cell-based; conditions: first set of experiments
T3 construct: expressed in transfected cells; host or cells: CHO FlpIn
T3 sequence (P08912 1-532): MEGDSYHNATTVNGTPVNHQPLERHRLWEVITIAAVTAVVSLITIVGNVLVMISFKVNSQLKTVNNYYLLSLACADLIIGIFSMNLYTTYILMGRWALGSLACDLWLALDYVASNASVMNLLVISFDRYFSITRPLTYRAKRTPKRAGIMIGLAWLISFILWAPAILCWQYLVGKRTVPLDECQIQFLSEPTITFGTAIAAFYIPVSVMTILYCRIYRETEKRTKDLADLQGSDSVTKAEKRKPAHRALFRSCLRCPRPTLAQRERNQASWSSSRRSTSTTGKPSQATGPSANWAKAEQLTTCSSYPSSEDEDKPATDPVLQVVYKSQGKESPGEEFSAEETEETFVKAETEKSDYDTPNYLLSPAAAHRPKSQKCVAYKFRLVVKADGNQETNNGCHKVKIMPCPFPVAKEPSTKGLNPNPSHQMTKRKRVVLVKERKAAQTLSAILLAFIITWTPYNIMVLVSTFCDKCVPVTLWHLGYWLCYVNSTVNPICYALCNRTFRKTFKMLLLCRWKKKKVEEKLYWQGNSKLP

M4 L190F mAChR [5] = target: T4, M4 L190F mAChR (Homo sapiens, UniProt P08173, L190F); experiment: as above; assay type: cell-based; conditions: M4(L190F); second set of experiments
T4 construct: expressed in transfected cells; host or cells: CHO FlpIn
T4 sequence (P08173 1-479 L190F): T2 sequence (P08173 1-479) with L190F

M2 WT mAChR = target: T5, M2 WT mAChR (Homo sapiens, UniProt P08172); experiment: BRET TRUPATH GoA activation (G-protein dissociation) assay; assay type: cell-based; conditions: M2 WT; T=[…]
T5 construct: expressed in transfected cells; host or cells: CHO FlpIn
T5 sequence (P08172 1-466): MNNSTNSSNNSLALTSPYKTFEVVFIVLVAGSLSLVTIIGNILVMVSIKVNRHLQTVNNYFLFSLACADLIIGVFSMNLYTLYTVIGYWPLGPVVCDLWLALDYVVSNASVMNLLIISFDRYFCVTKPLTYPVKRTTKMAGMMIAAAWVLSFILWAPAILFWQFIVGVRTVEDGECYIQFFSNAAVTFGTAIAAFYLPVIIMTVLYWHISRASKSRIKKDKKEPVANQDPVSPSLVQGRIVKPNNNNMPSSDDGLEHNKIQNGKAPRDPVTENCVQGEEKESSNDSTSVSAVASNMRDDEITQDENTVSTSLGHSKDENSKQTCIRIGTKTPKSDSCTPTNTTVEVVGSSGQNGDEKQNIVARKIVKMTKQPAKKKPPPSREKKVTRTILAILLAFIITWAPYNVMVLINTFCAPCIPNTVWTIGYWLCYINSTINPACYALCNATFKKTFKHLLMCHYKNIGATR
Experimental: (§1) Cells were seeded at 20,000 cells per well into 96-well flat-bottom white culture plates and grown for 4 h. Plasmid DNA (20 ng per well of Gα, Gβ and Gγ at a 1:1:1 ratio) and linear polyethylenimine were added to the cells in a 1:6 ratio. To allow for protein expression, cells were then incubated (37 °C, 5% CO2) for 48 h before the measurement of agonist activity. […] The initial 4 min of measurement was considered baseline counts before ligand or vehicle addition, with BRET readings every 2 min for a further 8 min following drug or vehicle addition.
(§2) Concentration–response curves were fitted to a three-parameter logistic equation to derive ligand potency (pEC50) estimates.
(§3) Data was analyzed using the operational model of agonism to quantify the efficacy (Logτ) of each agonist in each cell line, and subsequently corrected for receptor expression level differences between cell lines (Logτc), using the M2 WT as reference. […] Source data

M4 L190F mAChR [6] = target: T4, M4 L190F mAChR; experiment: as above; assay type: cell-based; conditions: T=[…]
Experimental: as §1, §2, §3

M4 WT mAChR = target: T6, M4 WT mAChR (Homo sapiens, UniProt P08173); experiment: as above; assay type: cell-based; conditions: T=[…]
T6 construct: expressed in transfected cells; host or cells: CHO FlpIn
T6 sequence (P08173 1-479): T2 sequence (P08173 1-479)

M2 mAChR = target: T7, M2 mAChR (Homo sapiens, UniProt P08172); experiment: whole-cell [3H]NMS radioligand competition binding, CHO FlpIn cells
T7 sequence (P08172 1-466): T5 sequence (P08172 1-466)

T1 sequence (P20309 whole entry): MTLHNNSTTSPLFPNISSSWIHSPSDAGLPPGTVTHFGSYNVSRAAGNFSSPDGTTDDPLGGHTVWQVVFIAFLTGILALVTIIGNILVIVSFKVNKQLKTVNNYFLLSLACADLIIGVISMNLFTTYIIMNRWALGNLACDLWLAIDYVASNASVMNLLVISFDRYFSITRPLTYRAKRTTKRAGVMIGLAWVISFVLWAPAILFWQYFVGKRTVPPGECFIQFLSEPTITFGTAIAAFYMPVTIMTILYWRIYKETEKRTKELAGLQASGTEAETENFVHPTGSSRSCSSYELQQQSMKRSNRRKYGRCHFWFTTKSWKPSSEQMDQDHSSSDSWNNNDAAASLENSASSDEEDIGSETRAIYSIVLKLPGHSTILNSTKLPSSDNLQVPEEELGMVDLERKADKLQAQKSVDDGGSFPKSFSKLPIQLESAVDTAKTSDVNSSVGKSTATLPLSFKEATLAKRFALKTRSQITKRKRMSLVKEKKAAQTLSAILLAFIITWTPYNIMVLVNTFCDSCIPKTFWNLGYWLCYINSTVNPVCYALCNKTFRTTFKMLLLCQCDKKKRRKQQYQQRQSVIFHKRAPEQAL

## CCCCCCOc1nsnc1C1=CCCN(C)C1 [Xanomeline, xanomeline]
M3 mAChR [1]
  Ki: 100 nM
M4 mAChR [2]; M4, Log[Ligand] (M) -5, individual experiments
  remaining binding at 10 µM: 1.95%
M4 mAChR [2]; M4, Log[Ligand] (M) -6, individual experiments
  remaining binding at 1 µM: 18.6%
M4 mAChR [2]; M4, Log[Ligand] (M) -7, individual experiments
  remaining binding at 0.1 µM: 88%
M4 mAChR [2]; M4, Log[Ligand] (M) -9, individual experiments
  remaining binding at 0.001 µM: 105%
M3 mAChR [3]
  Emax pERK1/2: 62 ± 6 % FBS stimulation
M3 mAChR [3]; M3, first set of experiments, read-out: pEC50 pERK1/2 (converted)
  EC50: 117 nM
M4 mAChR [4]; first set of experiments (top 5 rows)
  Emax pERK1/2: 92 ± 4 % FBS stimulation
M4 mAChR [4]; second set of experiments (bottom 4 rows)
  Emax pERK1/2: 101 ± 3 % FBS stimulation
M5 mAChR
  Emax pERK1/2: 80 ± 8 % FBS stimulation
M4 L190F mAChR [5]
  Emax pERK1/2: 90 ± 8 % FBS stimulation
M2 WT mAChR
  Log(Tau) corrected for receptor expression (Logτc), GoA activation: -0.65
M4 L190F mAChR [6]
  Log(Tau) corrected for receptor expression (Logτc), GoA activation: -0.36
M4 L190F mAChR [6]; […], Log[Ligand] (M) -3, individual experiments, read-out: GoA activation response
  activation at 1000 µM: 3.92%
M4 L190F mAChR [6]; […], Log[Ligand] (M) -5, individual experiments, read-out: GoA activation response
  activation at 10 µM: 49%
M4 WT mAChR
  Log(Tau) corrected for receptor expression (Logτc), GoA activation: 0.38
M2 mAChR; read-out: Affinities M2 M4: binding normalised to Buffer only-TB = 100, M2, Log[Ligand] (M) -7, individual experiments
  remaining binding at 0.1 µM: 83.3%
M2 mAChR; read-out: Affinities M2 M4: binding normalised to Buffer only-TB = 100, M2, Log[Ligand] (M) -8, individual experiments
  remaining binding at 0.01 µM: 90.2%
M2 mAChR; read-out: Affinities M2 M4: binding normalised to Buffer only-TB = 100, M2, Log[Ligand] (M) -10, individual experiments
  remaining binding at 0.0001 µM: 101%
